Reference: ChEMBL document CHEMBL3137667, “[Drug-induced liver injury; fourteenth updated edition of the bibliographic database of liver injuries and related drugs]” (Gastroenterol Clin Biol, 2004)

What was measured:
[1] = Highest frequency of moderate liver toxicity observed during clinical trials, expressed as a percentage. [column '% BIOL' in source]; conditions: human
[2] = Highest frequency of acute liver toxicity observed during clinical trials, expressed as a percentage. [column '% AIGUE' in source]; conditions: human
[3] = Presence of at least one case with successful reintroduction. [column 'REINT' in source]; conditions: human
[4] = Comments (NB not yet translated). [column 'COMMENTAIRES' in source]; conditions: human
[5] = Times to onset, minimal and maximal, observed in the indexed observations. [column 'DELAI' in source]; conditions: human
[6] = Proposed mechanism(s) of liver damage. [column 'MEC' in source]; conditions: human
[7] = human, serum
[8] = human, serum; remark: listed apart in the source
[9] = human
[10] = human; remark: listed apart in the source
[11] = human; remark: listed apart in the source
[12] = human, serum, 4383 h
[13] = human; remark: listed apart in the source
[14] = human; remark: listed apart in the source
[15] = human; remark: listed apart in the source
[16] = human; remark: listed apart in the source
[17] = human; remark: listed apart in the source
[18] = human; remark: listed apart in the source
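For Hepatotoxicity (association with vascular disease) in this document: count of indexed literature references reporting vascular liver injury in humans, e.g. peliosis hepatitis, hepatic veno-occlusive disease or Budd-Chiari syndrome.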
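For Hepatotoxicity (benign tumour) in this document: value is a count of indexed literature references citing a benign tumour confirmed by histopathology.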
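For Hepatotoxicity (choleostasis) in this document: human cholestatic liver injury, shown by histopathology or by peak ALT or AST elevation over alkaline phosphatase ratio below 2, value counts indexed literature reports.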
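For Hepatotoxicity (chronic liver disease) in this document: chronic liver injury confirmed by histopathology or persistently raised serum aminotransferase activity beyond 6 months, value given as the count of indexed literature references.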
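For Hepatotoxicity (cirrhosis) in this document: value is a count of indexed literature references reporting cirrhosis confirmed by histopathology.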
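For Hepatotoxicity (cytolytic) in this document: human cytolytic liver injury, shown by histopathology or by a ratio above 5 of peak ALT or AST elevation to alkaline phosphatase elevation, value counts indexed references.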
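For Hepatotoxicity (granulomatous hepatitis) in this document: value is a count of indexed literature references reporting granulomatous liver disease confirmed by histopathology.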
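For Hepatotoxicity (malignant tumour) in this document: malignant tumour confirmed by histopathology, value gives the count of indexed literature references reporting it.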
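For Hepatotoxicity (severe hepatitis) in this document: human clinical data: severe hepatitis, meaning potentially life-threatening liver failure or clinically observed cases, the value counts how many indexed literature references report it.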
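For Hepatotoxicity (steatosis) in this document: steatosis confirmed by histopathology, value is the count of indexed references.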

Row | SMILES | Hepatotoxicity (moderate) [1] [%] | Hepatotoxicity (acute) [2] [%] | Hepatotoxicity (successful reintroduction) [3] | Hepatotoxicity (comment) [4] | Hepatotoxicity (time to onset) [5] | Hepatotoxicity (mechanism) [6] | Hepatotoxicity (moderate) [7] | Hepatotoxicity (acute) [8] | Hepatotoxicity (cytolytic) [9] | Hepatotoxicity (choleostasis) [10] | Hepatotoxicity (severe hepatitis) [11] | Hepatotoxicity (chronic liver disease) [12] | Hepatotoxicity (cirrhosis) [13] | Hepatotoxicity (granulomatous hepatitis) [14] | Hepatotoxicity (association with vascular disease) [15] | Hepatotoxicity (steatosis) [16] | Hepatotoxicity (malignant tumour) [17] | Hepatotoxicity (benign tumour) [18] | Hepatotoxicity (moderate) ([1]; Liver) [%] | Hepatotoxicity (acute) ([2]; Liver) [%] | also measured
1 | COc1ccc([C@@H]2Sc3ccccc3N(CCN(C)C)C(=O)[C@@H]2OC(C)=O)cc1 [DILTIAZEM] | 6 | 2.4 | yes | RC/AMLODIPINE | 1 day - 5 months | Allergic | 20 | 11 | 6 | 5 | 1 | 0 | 0 | 2 | 0 | 1 | 0 | 0 |  |  | 
2 | CN(C)CCC=C1c2ccccc2COc2ccccc21 [DOXEPIN] | 33.3 | 0 | yes | AC_ANTI-ML | 1 week | Allergic | 3 | 2 | 2 | 1 | 0 | 0 | 0 | 0 | 0 | 0 | 0 | 0 |  |  | 
3 | CC[C@H]1OC(=O)[C@H](C)[C@@H](O[C@H]2C[C@@](C)(OC)[C@@H](O)[C@H](C)O2)[C@H](C)[C@@H](O[C@@H]2O[C@H](C)C[C@H](N(C)C)[C@H]2O)[C@](C)(O)C[C@@H](C)C(=O)[C@H](C)[C@@H](O)[C@]1(C)O [ERYTHROMYCIN] | 38 | 3 | yes | CHOLANGITE #CBP RC/AMOXICILLINE/TROLEANDOMYCINE | 12 hours - 5 weeks | Allergic, Toxic | 19 | 72 | 20 | 55 | 1 | 0 | 0 | 0 | 0 | 0 | 0 | 0 |  |  | 
4 | CCCCOCC(CN1C(=O)NC(=O)C(CC)(c2ccccc2)C1=O)OC(N)=O (stereo not drawn) [FEBARBAMATE] | 0 | 0 | yes | AC_ANTI-N/-LM I/PAROXETINE | 8 days - 15 months | Allergic | 2 | 9 | 9 | 1 | 5 | 0 | 0 | 1 | 0 | 1 | 0 | 0 |  |  | 
5 | CC(C)OC(=O)C(C)(C)Oc1ccc(C(=O)c2ccc(Cl)cc2)cc1 [FENOFIBRATE] |  |  | yes | RC/CLOFIBRATE CHOLESTASE_PROLONGEE DUCTOPENIE AC_ANTI-ML/-N | 1 day - 3 years | Allergic | 27 | 13 | 11 | 5 |  | 4 | 1 | 0 | 0 | 0 | 0 | 0 | 52.9 | 2.7 | Hepatotoxicity (severe hepatitis) ([11]; Liver): 0
6 | O=C(OCC(O)CO)c1ccccc1Nc1ccnc2cc(Cl)ccc12 (stereo not drawn) [GLAFENINE] |  |  | yes | LITHIASE | 2 days - 8 months |  | 2 | 14 |  |  |  | 5 | 5 |  | 0 | 0 | 0 | 0 | 0 | 0 | Hepatotoxicity (mechanism) ([6]; Liver): Allergic; Hepatotoxicity (cytolytic) ([9]; Liver): 12; Hepatotoxicity (choleostasis) ([10]; Liver): 2; Hepatotoxicity (severe hepatitis) ([11]; Liver): 7; Hepatotoxicity (granulomatous hepatitis) ([14]; Liver): 0
7 | COc1ccc(Cl)cc1C(=O)NCCc1ccc(S(=O)(=O)NC(=O)NC2CCCCC2)cc1 [GLYBURIDE] | 6.7 | 0 | yes | CHOLANGITE DUCTOPENIE | 2 weeks - 7 years | Allergic, Dose-dependant | 7 | 14 | 2 | 10 | 0 | 0 | 1 | 2 | 0 | 0 | 0 | 0 |  |  | 
8 | NNc1nncc2ccccc12 [HYDRALAZINE] |  |  | yes | CHOLANGITE AC_ANTI-N | 2 days - 3 years |  | 4 | 9 |  |  |  | 3 | 0 |  | 0 | 0 | 0 | 0 | 0 | 0 | Hepatotoxicity (mechanism) ([6]; Liver): Allergic, Toxic; Hepatotoxicity (cytolytic) ([9]; Liver): 6; Hepatotoxicity (choleostasis) ([10]; Liver): 3; Hepatotoxicity (severe hepatitis) ([11]; Liver): 2; Hepatotoxicity (granulomatous hepatitis) ([14]; Liver): 6
9 | CC(C)Cc1ccc(C(C)C(=O)O)cc1 (stereo not drawn) [IBUPROFEN] |  |  | yes | RC/DICLOFENAC CHOLESTASE_PROLONGEE DUCTOPENIE REACTIVATION_HSV6 | 1 day - 4 months | Allergic, Overdose | 10 | 20 | 14 | 6 |  | 1 | 1 | 0 | 0 | 1 | 0 | 0 | 16 | 0 | Hepatotoxicity (severe hepatitis) ([11]; Liver): 6
10 | Sc1ncnc2nc[nH]c12 [MERCAPTOPURINE ANHYDROUS] |  |  | yes | I/DOXORUBICINE CHOLANGITE | 2 days - 2 years |  | 13 | 30 |  |  |  | 0 | 0 |  | 2 | 0 | 3 | 0 | 53 | 4.9 | Hepatotoxicity (mechanism) ([6]; Liver): Dose-dependant; Hepatotoxicity (cytolytic) ([9]; Liver): 15; Hepatotoxicity (choleostasis) ([10]; Liver): 15; Hepatotoxicity (severe hepatitis) ([11]; Liver): 5; Hepatotoxicity (granulomatous hepatitis) ([14]; Liver): 0
11 | Nc1ccc(O)c(C(=O)O)c1 [MESALAMINE] | 21 | 1 | yes | CHOLANGITE RC/SULFASALAZINE AC_ANTI-N/-ML | 1 day - 1 year | Allergic | 14 | 12 | 5 | 3 | 1 | 1 | 0 | 1 | 0 | 0 | 0 | 0 |  |  | 
